# According to patent publication US9238797B2, “Method for production of pluripotent stem cell” (TAKARA BIO INC., priority 2008, dated 2016):
# Legend:
# Type in all cases: cell-based
# [1] = test system: human skin fibroblast; assay: iPS cell colony induction with three genes OCT4, SOX2 and KLF4, Retronectin or polybrene (Example 11); conditions: OCT4, SOX2 and KLF4 only, 28th day of culture, N=2
# Method: By limiting a gene to be introduced to three kinds of OCT4, SOX2 and KLF4, the same experiment as that of Example 10 was carried out.
# According to the same manner as that of Example 10-(2), gene transfer was carried out, provided that, as the retrovirus vector, retrovirus vectors DON5-am-OCT4-IR-SOX2 and DON5-am-KLF4 prepared in Preparation Example 2 were used.
# According to the same manner as that of Example 10-(4), the gene-introduced cell was seeded on a feeder cell, and culturing was continued.
# Culturing was carried out according to the same manner as that of Example 10-(5).
# In addition, the number in the Table indicates an average value of N=2.
# [2] = test system: human skin fibroblast; assay: iPS cell colony number, Retronectin method versus polybrene method (Example 19); conditions: for iPS cell colony number: 28th day of culture
# Method: As an index showing an existence rate of a cell in which each retrovirus vector together with a gene encoding a nuclear reprogramming factor (iPS cell inducing factor) was inserted, gene transfer of an AcGFP1 gene was carried out, and a pluripotent stem cell (iPS cell) induction efficiency and an AcGFP1 positive cell rate, in a gene transfer method with Retronectin (Retronectin method) and a gene transfer method with polybrene (polybrene method) were compared. In addition, regarding partial condition, quantitation of a copy number of a retrovirus vector inserted into a genome was carried out, and comparison of a copy number and a pluripotent stem cell (iPS cell) induction efficiency was carried out.
# The virus solutions prepared in Preparation Example 2 and Preparation Example 3 were mixed at an equal amount in a combination of Table 24, the solution in which the virus solution was diluted 10-fold and 100-fold with 10F-DMEM was prepared regarding the condition A, and the solution in which the virus solution was diluted 10-fold was prepared regarding the condition B, and these were used in gene transfer. Gene transfer was carried out according to the same manner as that of Example 7-(2), provided that 1 mL of PSB was used for washing a plate with PBS in the Retronectin method, the cell number used in infection by the Retronectin method and the polybrene method was 4×10^4 cells/well, and a retrovirus vector solution was 1 mL/well.
# According to the same manner as that of Example 10-(4), seeding of the gene-introduced cell on a feeder cell was carried out, provided that an AcGFP1 positive cell rate was measured with a flow cytometer using remaining cells which were not used in seeding on the feeder cell.
# According to the same manner as that of Example 10-(5), culturing on the feeder cell was carried out, provided that cells were recovered from a part of wells under the condition A on the 11th day of culture, genome extraction was carried out, and the inserted number of the retrovirus vector was quantitated.
# [3] = test system: human adult skin fibroblast; assay: iPS cell colony induction, standing infecting method, Retronectin versus Native fibronectin (Example 21); conditions: virus 10-fold dilution, standing infection, 27th day of culture, N=3
# Method: Using a plate coated with Retronectin and a plate coated with Native fibronectin, gene transfer was carried out, and pluripotent stem cell induction was carried out. In addition, as the plate, a plate made in the following Example 21-(1), and a marketed product of a 35 mm petri dish coated with Retronectin in advance (T110A manufactured by TAKARA BIO INC.), and a marketed product of a 35 mm petri dish coated with Native fibronectin in advance (354457 manufactured by FALCON) were used.
# According to the same manner as that of Example 1-(1), immobilization of Retronectin on a culture plate was carried out, provided that, as a culturing container, a non-treatment 35 mm petri dish (manufactured by IWAKI CO., LTD.) was used. In addition, petri dishes coated with Retronectin and Native fibronectin in advance which are marketed products (hereinafter, also described as Retronectin dish and fibronectin dish) were not subjected to these immobilization operations.
# The virus solutions prepared in Preparation Example 2 were mixed at an equal amount in a combination of Table 27, and diluted 10-fold with 10F-DMEM, each 2 mL was added to the Retronectin-immobilized culturing petri dish prepared in Example 21-(1), or the petri dish coated with Retronectin or Native fibronectin in advance, and this was allowed to stand in a CO2 incubator at 32° C. for 4 to 6 hours. […]
# [4] = test system: mouse embryonic fibroblast; MEF; assay: Efficiency of introducing a retrovirus vector into MEF, AcGFP1 positive cell rate (Example 23); conditions: four days after gene transfer
# Method: An efficiency of introducing a gene into MEF using a retrovirus vector was compared between a Retronectin method and a polybrene method.
# According to the same manner as that of Example 1-(1), immobilization of Retronectin on a culture plate was carried out, provided that, as a plate on which Retronectin is coated, a non-treatment 12-well plate (manufactured by Becton, Dickinson and Company) was used, and each 1 mL of a Retronectin solution (25 μg/mL) was added to each well.
# According to the same manner as that of Example 19-(2) and (3), gene transfer was carried out. The retrovirus vector was prepared according to the same manner as that of Preparation Example 3, and DON-eco-AcGFP1 made using pE-Eco plasmid (manufactured by TAKARA BIO INC.) in place of pE-Ampho plasmid was used. Each of the prepared retrovirus vector as a stock solution, and solutions obtained by diluting the stock solution by each 10-fold to 100000-fold with 10F-DMEM was used for infection. In addition, as a target cell, MEF (manufactured by Millipore) was used.
# On the next day of gene transfer, the medium was exchanged with 10F-DMEM.
# Four days after a gene transfer operation, the cells were recovered, and an AcGFP1 positive cell rate was measured with a flow cytometer.
substance,measurement,setting,value
"Retronectin: fragment of fibronectin having a heparin-II binding region (registered trademark, CH-296, TAKARA BIO INC.)",Number of iPS cell colonies,[1]; virus 10-fold dilution,28.0
same,Number of iPS cell colonies,[1]; virus 100-fold dilution,32.0
same,Number of iPS cell colonies,[1]; virus solution undiluted,13.0
same,iPS cell colony number higher in the Retronectin method,"[2]; Condition A, Retronectin method 100-fold dilution versus polybrene method 10-fold dilution",9 fold
same,"difference in the iPS cell colony number, Retronectin method versus polybrene method","[2]; Condition A, retrovirus 10-fold dilution",≥ 3 fold
same,iPS cell colony number higher in the Retronectin method,"[2]; Condition B, versus polybrene method",2 fold
same,iPS cell colony number,"[2]; vector combination Condition A, virus 10-fold dilution",10.0
same,iPS cell colony number,"[2]; vector combination Condition A, virus 100-fold dilution",27.0
same,iPS cell colony number,"[2]; vector combination Condition B, virus 10-fold dilution",11.5
same,Number of iPS cell colonies,"[3]; Condition A: DON5-am-OCT4-IR-SOX2, DON5-am-KLF4",52.0
same,Number of iPS cell colonies,"[3]; Condition B: DON5-am-OCT4-IR-SOX2, DON5-am-LIN28-IR-NANOG, DON5-am-KLF4",97.3
same,Positive cell rate,[4]; Virus concentration 0.00001,5.9%
same,Positive cell rate,[4]; Virus concentration 0.0001,15.3%
same,Positive cell rate,[4]; Virus concentration 0.001,41.3%
same,Positive cell rate,[4]; Virus concentration 0.01,64.6%
same,Positive cell rate,[4]; Virus concentration 0.1,80.3%
same,Positive cell rate,[4]; Virus concentration 1.0,84.1%
